Laboratory results as given in paper PMC9911797, “Novel TLR7/8 agonists promote activation of HIV-1 latent reservoirs and human T and NK cells” (Frontiers in Microbiology, 2023).

Key:
[1] = biological target: T1, hTLR8 (Homo sapiens, UniProt Q9NR97); experiment: HEK-Blue hTLR8 SEAP reporter assay; assay type: cell-based; settings: HEK-Blue hTLR8 cells, SEAP in supernatant
T1 construct: host or cells: HEK-Blue hTLR8 (HEK293-derived)
T1 sequence (Q9NR97 27-1041): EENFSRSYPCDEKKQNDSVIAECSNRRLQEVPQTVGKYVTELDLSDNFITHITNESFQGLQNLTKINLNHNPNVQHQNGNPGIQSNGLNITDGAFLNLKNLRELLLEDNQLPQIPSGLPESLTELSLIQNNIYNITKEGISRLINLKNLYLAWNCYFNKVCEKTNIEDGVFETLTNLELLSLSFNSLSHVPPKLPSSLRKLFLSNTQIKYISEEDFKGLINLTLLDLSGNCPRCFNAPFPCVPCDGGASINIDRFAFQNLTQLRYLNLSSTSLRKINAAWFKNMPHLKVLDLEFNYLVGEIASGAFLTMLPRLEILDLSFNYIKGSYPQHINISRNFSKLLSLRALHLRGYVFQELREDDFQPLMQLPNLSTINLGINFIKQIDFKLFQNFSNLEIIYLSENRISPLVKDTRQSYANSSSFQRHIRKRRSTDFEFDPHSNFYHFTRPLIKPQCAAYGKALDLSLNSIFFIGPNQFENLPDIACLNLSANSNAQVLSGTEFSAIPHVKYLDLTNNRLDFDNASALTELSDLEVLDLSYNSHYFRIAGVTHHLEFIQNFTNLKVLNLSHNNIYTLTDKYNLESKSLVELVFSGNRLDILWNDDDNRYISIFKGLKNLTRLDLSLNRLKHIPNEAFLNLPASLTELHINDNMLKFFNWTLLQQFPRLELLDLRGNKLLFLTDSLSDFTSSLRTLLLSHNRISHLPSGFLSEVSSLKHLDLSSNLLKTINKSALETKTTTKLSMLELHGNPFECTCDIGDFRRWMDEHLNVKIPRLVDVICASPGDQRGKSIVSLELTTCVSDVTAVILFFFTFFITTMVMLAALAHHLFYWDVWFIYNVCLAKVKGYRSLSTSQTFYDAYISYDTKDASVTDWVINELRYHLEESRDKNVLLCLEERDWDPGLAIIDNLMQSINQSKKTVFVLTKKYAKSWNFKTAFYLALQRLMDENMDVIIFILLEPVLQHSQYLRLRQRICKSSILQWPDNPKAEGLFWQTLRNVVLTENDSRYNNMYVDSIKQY
Procedure: (§1) Starting with the lead compound, 76 pyrido [3,2-d] pyrimidine derivatives were synthesized and optimized through structural modification from the deep hydrophobic region to the solvent-exposed region. Seventy-six compounds were evaluated for their in vitro activity using HEK-Blue hTLR7 or hTLR8 reporter cells, stably expressing the human TLR7 or TLR8 and an NF-κB/AP1-inducible SEAP (secreted embryonic alkaline phosphatase reporter gene).
(§2) Add 20 μl various concentrations of TLR agonists (10 dilutions) and in a 96-well plate. Then HEK-Blue hTLR7 and hTLR8 cells were suspended to 4 × 10^5 cells/ml in HEK-Blue Detection (InvivoGen) medium and added 180 μl per well. The plates were incubated at 37°C in 5% CO2 for 12 ~ 16 h. Stimulation with a hTLR7or hTLR8 ligand activates NF-κB to induce the production of secreted embryonic alkaline phosphatase (SEAP) in the culture supernatant. SEAP could be measured at OD630nm on an ELISA plate reader.

[2] = biological target: T2, hTLR7 (Homo sapiens, UniProt Q9NYK1); experiment: HEK-Blue hTLR7 SEAP reporter assay; assay type: cell-based; settings: HEK-Blue hTLR7 cells, SEAP in supernatant
T2 construct: host or cells: HEK-Blue hTLR7 (HEK293-derived)
T2 sequence (Q9NYK1 27-1049): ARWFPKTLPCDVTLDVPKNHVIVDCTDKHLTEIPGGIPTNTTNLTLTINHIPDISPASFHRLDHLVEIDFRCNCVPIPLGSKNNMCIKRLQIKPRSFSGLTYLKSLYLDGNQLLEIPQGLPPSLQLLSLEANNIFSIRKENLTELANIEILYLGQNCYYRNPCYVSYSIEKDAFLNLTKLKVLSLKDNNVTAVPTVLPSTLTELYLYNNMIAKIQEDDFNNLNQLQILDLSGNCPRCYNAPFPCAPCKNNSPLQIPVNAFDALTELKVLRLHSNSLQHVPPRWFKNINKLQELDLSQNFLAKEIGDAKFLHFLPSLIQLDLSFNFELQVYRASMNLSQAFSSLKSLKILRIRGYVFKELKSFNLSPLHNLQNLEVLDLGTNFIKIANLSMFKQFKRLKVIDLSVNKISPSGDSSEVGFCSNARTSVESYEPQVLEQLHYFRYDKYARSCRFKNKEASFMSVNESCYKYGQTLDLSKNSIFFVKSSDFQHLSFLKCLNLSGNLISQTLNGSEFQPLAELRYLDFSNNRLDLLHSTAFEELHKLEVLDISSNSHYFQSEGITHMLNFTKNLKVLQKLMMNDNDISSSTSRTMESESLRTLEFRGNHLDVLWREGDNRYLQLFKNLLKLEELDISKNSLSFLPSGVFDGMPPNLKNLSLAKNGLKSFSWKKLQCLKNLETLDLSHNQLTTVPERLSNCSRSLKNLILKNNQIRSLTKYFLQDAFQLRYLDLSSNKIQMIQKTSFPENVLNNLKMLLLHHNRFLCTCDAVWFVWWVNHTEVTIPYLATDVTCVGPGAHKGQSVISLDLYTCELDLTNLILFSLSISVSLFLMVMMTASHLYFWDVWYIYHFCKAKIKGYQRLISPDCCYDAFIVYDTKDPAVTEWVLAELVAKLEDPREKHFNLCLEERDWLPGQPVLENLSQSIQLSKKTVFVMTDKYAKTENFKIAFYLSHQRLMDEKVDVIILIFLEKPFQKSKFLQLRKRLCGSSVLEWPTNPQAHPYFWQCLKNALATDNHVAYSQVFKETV
Procedure: as §1, §2

[3] = tested on: NF-κB p65 in U1 cells; experiment: Nuclear phospho-p65-S536 in U1 cells (western blot); settings: 1 μM, 30 min, 37°C
[4] = tested on: U1 monocytic cell line (latent HIV-1); experiment: HIV-1 p24 production in latently infected U1 cells (ELISA); settings: 1 μM, TLR8- or MyD88-shRNA U1 vs sham-knockdown
[5] = tested on: PBMCs from HIV-1 well-suppressed patients; experiment: Latent HIV-1 activation in PBMCs of well-suppressed patients (HIV-1 RNA copies in supernatant, RT-qPCR); assay type: cell-based, human; settings: for HIV-1 RNA copies in the supernatant and TNF-α concentration: PBMCs from seven well-suppressed patients, IgG1-control antibody vs anti-TNF-α; for HIV-1 RNA copies in the supernatant: patient PBMCs (n = 6), 96 h at 37°C
Text: To study the potential of novel TLR7/8 in activating latent HIV-1 reservoir, TLR7/8 dual agonists D018 and C142 and TLR8-specific agonist B-130a were mixed with PBMCs from six well-suppressed patients whose viral load in the plasma was less than 50 copies/ml, and CD4 counts were more than […] for more than 6 years.
TLR7/8 agonists activated PBMCs from seven well-suppressed patients with the addition of anti-TNF-α monoclonal antibody or IgG1-control monoclonal antibody, respectively. D018, B-130a, and the positive control PMA + ION increased the levels of HIV-1 RNA copies in the supernatant and the concentration of TNF-α concomitantly.
To measure the HIV viral load, viral RNA from supernatants was extracted by MagaBio Plus Viral DNA / RNA Purification Kit (BIOER). The reverse-transcription and analysis of RNA copies were performed using the HIV-1 Real-time PCR detection kit (BIOER).

[6] = tested on: J-LAT cells co-cultured with MDDCs; experiment: J-LAT and MDDC co-culture assay (GFP+ cells and TNF-α); settings: 1 μM, 48 h
[7] = tested on: PBMCs; experiment: Inflammatory cytokine release from PBMCs (Legend-plex); assay type: cell-based, human; settings: PBMC culture supernatant 48 h after stimulation
Procedure: Then, a total of 13 human inflammatory cytokines and chemokines (IL-1β, IFN-α2, IFN-γ, TNF-α, CCL2, IL-6, CXCL8, IL-10, IL-12p70, IL-17A, IL-18, IL-23, and IL-33) were measured in the culture supernatant 48 h after stimulation and compared with two healthy donors. Only 8 out of 13 became detectable and largely fell into the proinflammatory cytokines (IL-1β, IL-6, IL-18, IL-23, and TNF-α), Th1-and Th2-type cytokines (IL-10 and IFN-γ), and type I (IFN-α2) and type II (IFN-γ) interferons (Figures 2B–I).
The supernatants from PBMCs culture were collected and stored at-20°C until analysis. For the Multi-cytokines assay, the Legend-plex Human Inflammation Panel 1 kit (Biolegend) was used according to the manual. Thirteen human inflammatory cytokines/chemokines were measured, including IL-1β, IFN-α2, IFN-γ, TNF-α, MCP-1 (CCL2), IL-6, IL-8 (CXCL8), IL-10, IL-12p70, IL-17A, IL-18, IL-23, and IL-33.

[8] = tested on: J-LAT CD4 T cell line (latent HIV-1); experiment: J-LAT activation by supernatant of agonist-stimulated healthy donor PBMCs (GFP+ cells, FACS); settings: 48 h, highest concentration 16 μM
[9] = tested on: HIV-1; parameters: method as in SenGupta et al., 2021; settings: patients treated with oral GS9620, phase 1b, placebo 4.1 weeks; ref SenGupta et al., 2021; cited from earlier work
[10] = tested on: J-LAT CD4 T cell line (latent HIV-1); experiment: Direct stimulation of J-LAT cells (GFP-positive cells)

Compound	EC50 [1] [nM]	EC50 [2] [nM]	other results
COCCNc1nc(N)nc2ccc(Cc3ccc(CN(C)C)cc3)nc12 [199-1]	9.69	117	–
CCCCCc1cc(Cc2ccc(CN(C)C)cc2)c(C)nc1N [B-130a]	55.2	> 10000	nuclear phos-p65-S536 [3]: significant increase; p24 production after TLR8 or MyD88 knockdown [4]: essentially abolished the p24 production; HIV-1 RNA copies in the supernatant and TNF-α concentration [5]: increased; HIV-1 RNA copies in the supernatant [5]: activated detectable levels of HIV-1 RNA copies; GFP+ J-LAT cells and soluble TNF-α in MDDC co-culture [6]: marked increase; release of inflammatory cytokines [7]: comparable potency but were invariably higher than TLR7-specific GS9620
CCCCNc1nc(N)nc2ccc(Cc3ccc(CN(C)C)cc3OC)nc12 [C142]	44.1	20	HIV-1 RNA copies in the supernatant [5]: activated detectable levels of HIV-1 RNA copies; release of inflammatory cytokines [7]: either equivalent (IL-6, IL-10, IL-23, and IFN-γ) or higher (IL-1β, IL-18, and TNF-α) than the commercially available R848
CCCCOc1nc(N)c2c(n1)N(Cc1cccc(CN3CCCC3)c1)CC(=O)N2 [GS9620, reference compound]	> 10000	353	HIV-1 RNA copies in the supernatant and TNF-α concentration [5]: low detectable levels; GFP-positive J-LAT cells, PBMC supernatant [8]: did not show any detectable effect; viral rebound time [9]: 5.1 weeks; GFP+ J-LAT cells and soluble TNF-α in MDDC co-culture [6]: no detectable levels
IFN-α	–	–	GFP-positive J-LAT cells, direct stimulation [10]: failed to activate J-LAT cells
TNF-α	–	–	GFP-positive J-LAT cells, direct stimulation [10]: could activate GFP expression

Now from value to compound, other results behind:

EC50 [1] [nM]	EC50 [2] [nM]	Compound	other results
67.2	> 10000	CCCCCc1cc(Cc2ccc(CN3CCCC3)cc2)c(C)nc1N [B-130b]	–
17.3	101	CCCCNc1nc(N)nc2ccc(Cc3ccc(CN4CCCC4)cc3)nc12 [C008]	–
178	1650	CCCCNc1nc(N)nc2ccc(C(C)c3ccc(CN(C)C)cc3)nc12 (stereo not shown) [C163]	–
2000	2600	CCCCNc1nc(N)nc2ccc(Cl)nc12 [LB06]	–
151	> 10000	CCCN(CCC)C(=O)C1=Cc2ccc(-c3ccc(C(=O)N4CCCC4)cc3)cc2N=C(N)C1 [VTX-2337, reference compound]	release of inflammatory cytokines [7]: comparable potency but were invariably higher than TLR7-specific GS9620
51	118	CCCCNc1nc(N)nc2ccc(Cc3ccc(CN4CCOCC4)cc3)nc12 [WA86]	–
197	> 10000	CCCCCc1cc2nc(Cc3ccc(CN(C)C)cc3)ccc2nc1N [WA175]	–
